According to paper PMC12141164, “Phase-1 study of vamotinib (PF-114), a 3rd generation BCR::ABL1 tyrosine kinase-inhibitor, in chronic myeloid leukaemia” (Annals of Hematology, 2025):
Where two headings read alike, the source gives them in different places.

Experiments:
animals = conditions: cited from earlier work
EPHA7 = conditions: kinase inhibition profiles; cited from earlier work
[1] = Pharmacokinetics in plasma after single- and multiple-dose administration; format: in vivo, human
Procedure: Blood samples were obtained to evaluate pharmacokinetics and pharmacodynamics (Tables S1, S1.1, S1.2). Data on phosphorylated CrkL protein (pCrkL) concentration were evaluated in samples from 4 subjects.
Pharmacokinetic measurements were done on days 1 and 29–30 of treatment. […] Steady-state was reached after 8 days of dosing, Fig. 1.
PF-114 was determined in human plasma samples using validated analytical method. […] The analytical method used 200 µL of plasma sample for each analysis. Analyte was isolated from plasma by a solid-phase extraction procedure performed on Oasis MCX extraction columns.
According to the Protocol, population for the pharmacokinetic analysis consists of all patients, who took at least one dose of PF-114, with respect to which sufficient amount of data on concentration of the study drug in the blood. The analysis of data on pharmacokinetic properties of the drug is carried out in this population of patients. All PK analyses will be presented on two subsets described in more detail below:
The PK concentration set (PK-C): This set includes all treated subjects who have at least 1 measured concentration.
The PK parameter analysis set (PK-P): This set consists of subjects from PK-C, who have no major protocol violation relevant to the evaluation of Pharmacokinetics, and who have at least 1 estimated PK parameter. Listings include all available raw data without any exclusions.

[2] = test system: BaF3 cells expressing BCR::ABL1^T315I; parameters: method as in PMID 25394714; conditions: read-out: IC50 of cytotoxicity; cited from earlier work
TIE2 = conditions: kinase inhibition profiles; cited from earlier work
PDGFRa = conditions: kinase inhibition profiles; cited from earlier work
[3] = human, plasma, oral, 50 mg, Multiple-dose administration
[4] = human, plasma, oral, 50 mg, Single-dose administration
[5] = human, plasma, oral, 100 mg, Multiple-dose administration
[6] = human, plasma, oral, 100 mg, Single-dose administration
[7] = human, plasma, oral, 200 mg, Multiple-dose administration
[8] = human, plasma, oral, 200 mg, Single-dose administration
[9] = human, plasma, oral, 300 mg, Multiple-dose administration
[10] = human, plasma, oral, 300 mg, Single-dose administration
[11] = human, plasma, oral, 400 mg, Multiple-dose administration
[12] = human, plasma, oral, 400 mg, Single-dose administration
[13] = human, plasma, oral, 500 mg, Multiple-dose administration
[14] = human, plasma, oral, 500 mg, Single-dose administration
[15] = human, plasma, oral, 600 mg, Multiple-dose administration
[16] = human, plasma, oral, 600 mg, Single-dose administration
[17] = human, plasma, oral, 750 mg, Single-dose administration

For `Cc1ccc(C(=O)Nc2ccc(CN3CCN(C)CC3)c(C(F)(F)F)c2)cc1C#Cc1nnc2ccccn12` [vamotinib], the arterial occlusive events (animals; pre-clinical studies in animals) is listed as “no arterial occlusive events”, the cardio-vascular findings (animals; pre-clinical toxicology studies) is listed as “No cardio-vascular findings” and the “inhibition of EPHA7” value (EPHA7) is listed as “not”. For the same molecule, the “Ctrough, Mean” value ([1]; Multiple-dose administration, 50 mg) was 7,35 ng/ml, the “Ctrough, Mean” value ([1]; Multiple-dose administration, 100 mg) was 8,90 ng/ml and the “Ctrough, Mean” value ([1]; Multiple-dose administration, 200 mg) was 21,92 ng/ml. The “Ctrough, Mean” value ([1]; Multiple-dose administration, 300 mg) was 22,45 ng/ml, the “Ctrough, Mean” value ([1]; Multiple-dose administration, 400 mg) was 35,34 ng/ml and the “Ctrough, Mean” value ([1]; Multiple-dose administration, 500 mg) was 38,40 ng/ml. For the same molecule, the “Ctrough, Mean” value ([1]; Multiple-dose administration, 600 mg) was 49,78 ng/ml, the “linearity of pharmacokinetics (concentration-time profiles)” value ([1]; dose range 50–750 mg) was “linear or near-linear pharmacokinetics” and the half-life ([1]; human, plasma, oral) was 13.5 h. For the same molecule, the Cmax [1, 3] was 33.3 ng/mL, the Tmax [1, 3] was 1.9 h and the AUC(0-t) ([1]; human, plasma, oral, 50 mg, Multiple-dose administration, 50 mg, read-out: AUC0-24, Mean) was 445 ng·h/mL. It also gave a Cmax [1, 4] of 25.3 ng/mL, a Tmax [1, 4] of 2.67 h and an AUC(0-t) ([1]; human, plasma, oral, 50 mg, Single-dose administration, 50 mg, read-out: AUC0-t, Mean) of 252 ng·h/mL. The Cmax [1, 5] was 94 ng/mL, the Tmax [1, 5] was 3.36 h and the AUC(0-t) ([1]; human, plasma, oral, 100 mg, Multiple-dose administration, 100 mg, read-out: AUC0-24, Mean) was 1260 ng·h/mL. It also gave a Cmax [1, 6] of 89.7 ng/mL, a Tmax [1, 6] of 4.67 h and an AUC(0-t) ([1]; human, plasma, oral, 100 mg, Single-dose administration, 100 mg, read-out: AUC0-t, Mean) of 1070 ng·h/mL. For the same molecule, the Cmax [1, 7] was 109 ng/mL, the Tmax [1, 7] was 3.36 h and the AUC(0-t) ([1]; human, plasma, oral, 200 mg, Multiple-dose administration, 200 mg, read-out: AUC0-24, Mean) was 1580 ng·h/mL. For the same molecule, the Cmax [1, 8] was 82.1 ng/mL, the Tmax [1, 8] was 3.46 h and the AUC(0-t) ([1]; human, plasma, oral, 200 mg, Single-dose administration, 200 mg, read-out: AUC0-t, Mean) was 1060 ng·h/mL. The Cmax [1, 9] was 148 ng/mL, the Tmax [1, 9] was 4.52 h and the AUC(0-t) ([1]; human, plasma, oral, 300 mg, Multiple-dose administration, 300 mg, read-out: AUC0-24, Mean) was 2260 ng·h/mL. For the same molecule, the Cmax [1, 10] was 125 ng/mL, the Tmax [1, 10] was 3.58 h and the AUC(0-t) ([1]; human, plasma, oral, 300 mg, Single-dose administration, 300 mg, read-out: AUC0-t, Mean) was 1630 ng·h/mL. For the same molecule, the Cmax [1, 11] was 177 ng/mL, the Tmax [1, 11] was 4 h and the AUC(0-t) ([1]; human, plasma, oral, 400 mg, Multiple-dose administration, 400 mg, read-out: AUC0-24, Mean) was 2710 ng·h/mL. The Cmax [1, 12] was 120 ng/mL, the Tmax [1, 12] was 4.72 h and the AUC(0-t) ([1]; human, plasma, oral, 400 mg, Single-dose administration, 400 mg, read-out: AUC0-t, Mean) was 1740 ng·h/mL. For the same molecule, the Cmax [1, 13] was 228 ng/mL, the Tmax [1, 13] was 4.04 h and the AUC(0-t) ([1]; human, plasma, oral, 500 mg, Multiple-dose administration, 500 mg, read-out: AUC0-24, Mean) was 3490 ng·h/mL. The Cmax [1, 14] was 116 ng/mL, the Tmax [1, 14] was 3.96 h and the AUC(0-t) ([1]; human, plasma, oral, 500 mg, Single-dose administration, 500 mg, read-out: AUC0-t, Mean) was 1500 ng·h/mL. The Cmax [1, 15] was 179 ng/mL, the Tmax [1, 15] was 3.62 h and the AUC(0-t) ([1]; human, plasma, oral, 600 mg, Multiple-dose administration, 600 mg, read-out: AUC0-24, Mean) was 2800 ng·h/mL. It also gave a Cmax [1, 16] of 212 ng/mL, a Tmax [1, 16] of 4.65 h and an AUC(0-t) ([1]; human, plasma, oral, 600 mg, Single-dose administration, 600 mg, read-out: AUC0-t, Mean) of 3020 ng·h/mL. For the same molecule, the Cmax [1, 17] was 225 ng/mL, the Tmax [1, 17] was 4.5 h and the AUC(0-t) ([1]; human, plasma, oral, 750 mg, Single-dose administration, 750 mg, read-out: AUC0-t, Mean) was 3290 ng·h/mL. The “time of dosing to reach steady-state” value ([1]; once daily dosing) was 8 days, the “concentration in the blood during the day” value ([1]; starting from a dose of 200 mg) was “exceeds 75 nM” and the IC50 [2] was 75 nM. For the same molecule, the “inhibition of TIE2” value (TIE2) was “not” and the “inhibition of PDGFRa” value (PDGFRa) was “potently inhibited”.
